# Experiments:
# CGRP receptor [1] = biological target: T1, CGRP receptor (Homo sapiens, UniProt O60894+Q16602); experiment: CGRP radioligand binding assay ([125I]-CGRP displacement, SK-N-MC homogenate); set-up: endogenous in cells; host or cells: SK-N-MC cells (homogenate/membrane pellet); settings: Table 2; displacement of [125I]-CGRP, SK-N-MC membranes
# Protocol: CGRP Binding Assay. Tissue Culture. SK-N-MC cells were grown at 37° C. in 5% CO2 as a monolayer in medium consisting of MEM with Earle's salts and L-glutamine (Gibco) supplemented with 10% fetal bovine serum (Gibco). Cell Pellets. The cells were rinsed twice with phosphate-buffered saline (155 mM NaCl, 3.3 mM Na2HPO4, 1.1 mM KH2PO4, pH 7.4), and incubated for 5-10 min. at 4° C. in hypotonic lysis buffer consisting of 10 mM Tris (pH 7.4) and 5 mM EDTA. The cells were transferred from plates to polypropylene tubes (16×100 mm) and homogenized using a polytron. Homogenates were centrifuged at 32,000×g for 30 min. The pellets were resuspended in cold hypotonic lysis buffer with 0.1% mammalian protease inhibitor cocktail (Sigma) and assayed for protein concentration. The SK-N-MC homogenate was then aliquoted and stored at −80° C. until needed.
# Radioligand Binding Assay. The compounds of invention were solubilized and carried through serial dilutions using 100% DMSO. Aliquots from the compound serial dilutions were further diluted 25 fold into assay buffer (50 mM Tris-Cl pH 7.5, 5 mM MgCl2, 0.005% Triton X-100) and transferred (volume 50 μl) into 96 well assay plates. [^125I]-CGRP (Amersham Biosciences) was diluted to 60 pM in assay buffer and a volume of […] was added to each well. SK-N-MC pellets were thawed, diluted in assay buffer with fresh 0.1% mammalian protease inhibitor cocktail (Sigma), and homogenized again. SK-N-MC homogenate (5 μg/well) was added in a volume of 100 μl. The assay plates were then incubated at room temperature for 2 h. Assays were stopped by addition of excess cold wash buffer (20 mM Tris-Cl pH 7.5, 0.1% BSA) immediately followed by filtration over glass fiber filters (Whatman GF/B) previously soaked in 0.5% PEI. Non-specific binding was defined with 1 μM beta-CGRP. Protein bound radioactivity was determined using a gamma or scintillation counter. The IC50 was defined as the concentration of a compound of invention required to displace 50% of radioligand binding.
# CGRP receptor [2] = biological target: T1, CGRP receptor; experiment: Cyclic AMP functional antagonism assay in SK-N-MC cells; type: cell-based; set-up: SK-N-MC cells that endogenously express the human CGRP receptor; endogenous in cells; host or cells: SK-N-MC cells; settings: Table 2; inhibition of 0.3 nM CGRP-induced cAMP in SK-N-MC cells; read-out: cAMP Function IC50
# Protocol: Cyclic AMP Functional Antagonism Assay. Antagonism of the compounds of invention was determined by measuring the formation of cyclic AMP (adenosine 3′5′-cyclic monophosphate) in SK-N-MC cells that endogenously express the human CGRP receptor. CGRP receptor complex is coupled with Gs protein and CGRP binding to this complex leads to the cyclic AMP production via Gs-dependent activation of an adenylate cyclase (Juaneda C. et al., TiPS, 2000; 21:432-438). Consequently, CGRP receptor antagonists inhibit CGRP—induced cyclic AMP formation in SK-N-MC cells (Doods H, et al., Br J Pharmacol, 2000; 129(3):420-423). For cyclic AMP measurements SK—N-MC cells were incubated with 0.3 nM CGRP alone or in the presence of various concentrations of the compounds of invention for 30 min at room temperature. Compounds of invention were pre-incubated with SK—N-MC cells for 15 min before the addition of CGRP to allow receptor occupancy (Edvinsson et al., Eur J Pharmacol, 2001, 415:39-44). Cyclic AMP was extracted using the lysis reagent and its concentration was determined by radioimmunoassay using RPA559 cAMP SPA Direct Screening Assay Kit (Amersham Pharmacia Biotech). IC50 values were calculated using Excel fit.
# T1 sequence (Q16602 23-461): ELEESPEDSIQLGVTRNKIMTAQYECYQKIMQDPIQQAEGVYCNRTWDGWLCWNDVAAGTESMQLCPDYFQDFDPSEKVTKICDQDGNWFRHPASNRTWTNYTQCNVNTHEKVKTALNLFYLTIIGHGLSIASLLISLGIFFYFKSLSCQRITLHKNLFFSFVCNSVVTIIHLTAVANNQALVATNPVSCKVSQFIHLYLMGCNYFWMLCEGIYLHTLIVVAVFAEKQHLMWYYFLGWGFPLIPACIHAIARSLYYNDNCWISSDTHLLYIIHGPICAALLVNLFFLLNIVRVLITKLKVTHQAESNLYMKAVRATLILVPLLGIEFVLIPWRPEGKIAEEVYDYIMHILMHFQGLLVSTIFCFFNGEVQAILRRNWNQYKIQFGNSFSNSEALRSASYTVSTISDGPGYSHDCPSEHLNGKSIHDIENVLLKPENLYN
# T1 sequence (O60894 27-148): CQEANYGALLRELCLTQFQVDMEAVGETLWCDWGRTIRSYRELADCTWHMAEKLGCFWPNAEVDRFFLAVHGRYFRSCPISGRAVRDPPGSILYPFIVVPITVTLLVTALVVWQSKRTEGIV
Compound,IC50 (CGRP receptor [1]) [nM],IC50 (CGRP receptor [2]) [nM]
O=C(C[C@@H]1Cc2cc(Cl)c3[nH]ncc3c2CN(Cc2ccncc2)C1=O)N1CCC(n2cc(-c3ccccc3)[nH]c2=O)CC1,0.01 to 10,0.01 to 10
CC(C)(C)CN1Cc2c(cc(Cl)c3[nH]ncc23)C[C@@H](CC(=O)N2CCC(N3Cc4ccccc4CC3=O)CC2)C1=O,0.01 to 10,0.01 to 10
O=C(C[C@@H]1Cc2cc(Cl)c3[nH]ncc3c2CN(Cc2ncc[nH]2)C1=O)N1CCC(N2Cc3ccccc3NC2=O)CC1,0.01 to 10,0.01 to 10
O=C(C[C@@H]1Cc2cc(Cl)c3[nH]ncc3c2CN(Cc2ccncc2)C1=O)N1CCC(c2cc3ccccc3[nH]c2=O)CC1,0.01 to 10,0.01 to 10
CC(C)(C)CCN1Cc2c(ccc3[nH]ncc23)C[C@@H](NC(=O)N2CCC(N3Cc4ccccc4NC3=O)CC2)C1=O,0.01 to 10,0.01 to 10
CC(C)(C)CN1Cc2c(cc(Cl)c3[nH]ncc23)C[C@@H](CC(=O)N2CCC(N3Cc4ccccc4NC3=O)CC2)C1=O,0.01 to 10,0.01 to 10
CC(C)(C)CN1Cc2c(cc(Cl)c3[nH]ncc23)C[C@@H](CC(=O)N2CCC(c3cc4ccccc4[nH]c3=O)CC2)C1=O,0.01 to 10,0.01 to 10
CC(C)(C)CN1Cc2c(cc(Cl)c3[nH]ncc23)C[C@@H](CC(=O)N2CCC3(CC2)NC(=O)Nc2ccccc23)C1=O,0.01 to 10,0.01 to 10
CC(C)(C)CN1Cc2c(ccc3[nH]ncc23)C[C@@H](CC(=O)N2CCC(N3Cc4ccccc4NC3=O)CC2)C1=O [drawing 84],–,0.01 to 10
O=C(C[C@@H]1Cc2cc(Cl)c3[nH]ncc3c2CN(Cc2ccncc2)C1=O)N1CCC(N2Cc3cccc(F)c3NC2=O)CC1,0.01 to 10,0.01 to 10
O=C(NC1Cc2ccc3[nH]ncc3c2CN(CCc2ccncc2)C1=O)N1CCC(N2Cc3ccccc3NC2=O)CC1 (centres unmarked),0.01 to 10,0.01 to 10
CC(C)(C)CN1Cc2c(cc(Cl)c3[nH]ncc23)C[C@@H](CC(=O)N2CCC(N3Cc4cccc(F)c4NC3=O)CC2)C1=O,0.01 to 10,0.01 to 10

# The next lines start with the values.
IC50 (CGRP receptor [1]) [nM],IC50 (CGRP receptor [2]) [nM],Compound
0.01 to 10,0.01 to 10,CC(C)(C)CN1Cc2c(cc(Cl)c3[nH]ncc23)C[C@@H](CC(=O)N2CCC(n3cc(-c4ccccn4)[nH]c3=O)CC2)C1=O
0.01 to 10,0.01 to 10,CC(C)(C)CN1Cc2c(cc(Cl)c3[nH]ncc23)C[C@@H](NC(=O)N2CCC(N3Cc4ccccc4NC3=O)CC2)C1=O
0.01 to 10,0.01 to 10,CC(C)(C)CN1Cc2c(ccc3[nH]ncc23)CC(NC(=O)N2CCC(N3Cc4ccccc4NC3=O)CC2)C1=O (centres unmarked)
0.01 to 10,0.01 to 10,O=C(C[C@@H]1Cc2cc(Cl)c3[nH]ncc3c2CN(Cc2ccncc2)C1=O)N1CCC(N2Cc3ccccc3NC2=O)CC1
0.01 to 10,0.01 to 10,CC(C)(C)CN1Cc2c(cc(Cl)c3[nH]ncc23)C[C@@H](CC(=O)N2CCC(n3cc(-c4ccccc4)[nH]c3=O)CC2)C1=O
0.01 to 10,0.01 to 10,O=C(N[C@@H]1Cc2cc(Cl)c3[nH]ncc3c2CN(Cc2ccccc2)C1=O)N1CCC(N2Cc3ccccc3NC2=O)CC1
